Test results published in patent publication US7816522B2, “Triazolone derivatives” (Eisai Co., Ltd., priority 2006, dated 2010).
Counter-ions that a name gives are not always drawn.

Biological target: T1, human clotting factor VIIa (Homo sapiens, UniProt P08709)
T1 construct: a human clotting factor VIIa (hereinafter, “Factor VIIa”) purified sample; purchased Enzyme Research Laboratories HFVIIa
Experiment: Inhibitory activity against clotting factor VIIa (chromogenic substrate Spectrozyme FVIIa, TF/Factor VIIa enzyme solution)
Assay type: biochemical
Settings: human Factor VIIa 5 nmol/L with human TF 10 nmol/L, room temperature 40 minutes, 405 nm
Method in brief: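 Human Factor VIIa (5 nmol/L) with human TF (10 nmol/L) in Tris-BSA buffer pH 7.4 containing 15 mmol/L CaCl2 and cephalin, with Spectrozyme FVIIa substrate. Reaction 40 min at room temperature; 4-nitroanilide read at 405 nm. IC50 by non-linear regression over 100 μmol/L–0.1 nmol/L.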

T1 sequence (P08709 213-466 limits assumed): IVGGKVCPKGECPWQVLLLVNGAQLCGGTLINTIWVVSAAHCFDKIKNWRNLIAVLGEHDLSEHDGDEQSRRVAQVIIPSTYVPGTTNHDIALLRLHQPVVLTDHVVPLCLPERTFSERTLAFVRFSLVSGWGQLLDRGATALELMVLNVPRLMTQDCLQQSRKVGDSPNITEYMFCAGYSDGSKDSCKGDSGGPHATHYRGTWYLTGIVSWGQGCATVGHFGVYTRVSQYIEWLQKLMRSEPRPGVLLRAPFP
T1 sequence (P08709 61-212 limits assumed): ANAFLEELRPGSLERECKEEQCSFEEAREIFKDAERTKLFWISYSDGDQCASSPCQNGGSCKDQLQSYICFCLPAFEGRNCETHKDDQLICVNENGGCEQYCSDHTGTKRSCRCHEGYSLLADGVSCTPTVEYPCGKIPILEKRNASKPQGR
T1 sequence (P13726 33-295 partner): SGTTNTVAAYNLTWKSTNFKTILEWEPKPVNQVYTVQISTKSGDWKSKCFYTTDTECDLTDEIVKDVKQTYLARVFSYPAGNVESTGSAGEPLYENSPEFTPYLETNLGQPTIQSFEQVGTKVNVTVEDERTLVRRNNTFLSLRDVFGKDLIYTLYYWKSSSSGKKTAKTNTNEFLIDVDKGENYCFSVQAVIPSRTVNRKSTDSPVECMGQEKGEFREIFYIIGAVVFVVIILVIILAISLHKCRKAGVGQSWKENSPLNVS

Row | SMILES | IC50
1 | COc1cc(C(Nc2ccc(C(=N)N)cc2)c2nn(-c3ccsc3C(=O)O)c(=O)[nH]2)c(F)c2c1OCCC2 (racemic) [Example 222, 3-{3-[(4-Carbamimidoylphenylamino)-(5-fluoro-8-methoxychroman-6-yl)methyl]-5-oxo-4,5-dihydro-[1,2,4]triazol-1-yl}thiophene-2-carboxylic acid] | 2.7 nM
2 | COc1cc(C(Nc2ccc(C(=N)N)cc2)c2nn(-c3ncccn3)c(=O)[nH]2)cc2c1OCC(=O)N2CCF (racemic) [Example 223, 4-{[[4-(2-Fluoroethyl)-8-methoxy-3-oxo-3,4-dihydro-2H-benzo[1,4]oxazin-6-yl]-(5-oxo-1-pyrimidin-2-yl-4,5-dihydro-1H-[1,2,4]triazol-3-yl)methyl]amino}benzamidine] | 13.4 nM
3 | COc1cc(OC)cc(C(Nc2ccc(C(=N)N)cc2)c2nn(-c3ncccc3C)c(=O)[nH]2)c1 (racemic) [Example 225, (R) and (S)-4-({(3,5-Dimethoxyphenyl)-[1-(3-methylpyridin-2-yl)-5-oxo-4,5-dihydro-1H-[1,2,4]triazol-3-yl]methyl}amino)benzamidine acetate] | 3.7 nM
4 | COc1cc(C(Nc2ccc(C(=N)N)cc2)c2nn(-c3ccsc3C(=O)O)c(=O)[nH]2)cc2c1OCOC2 (racemic) [Example 226, 3-{3-[(R) and (S)-(4-Carbamimidoylphenylamino)-(8-methoxy-4H-benzo[1,3]dioxin-6-yl)methyl]-5-oxo-4,5-dihydro-[1,2,4]triazol-1-yl}thiophene-2-carboxylic acid] | 3.2 nM
5 | COc1cc(C(Nc2ccc(C(=N)N)cc2)c2nn(-c3ccsc3C(=O)O)c(=O)[nH]2)cc(OC)c1OC (racemic) [Example 227, 3-{3-[(R) and (S)-(4-Carbamimidoylphenylamino)-(3,4,5-trimethoxyphenyl)methyl]-5-oxo-4,5-dihydro-[1,2,4]triazol-1-yl}thiophene-2-carboxylic acid] | 4.5 nM
6 | COc1cc(OCCO)c(F)c(C(Nc2ccc(C(=N)N)cc2)c2nn(-c3ccsc3C(=O)O)c(=O)[nH]2)c1 (racemic) [Example 228, (R) and (S)-3-(3-{(4-Carbamimidoylphenylamino)-[2-fluoro-3-(2-hydroxyethoxy)-5-methoxyphenyl]methyl}-5-oxo-4,5-dihydro[1,2,4]triazol-1-yl)thiophene-2-carboxylic acid] | 2.6 nM
7 | COc1cc(OCCCO)c(F)c(C(Nc2ccc(C(=N)N)cc2)c2nn(-c3ncccn3)c(=O)[nH]2)c1 (racemic) [Example 229, (R) and (S)-4-{[[2-Fluoro-3-(3-hydroxypropoxy)-5-methoxyphenyl]-(5-oxo-1-pyrimidin-2-yl-4,5-dihydro-1H-[1,2,4]triazol-3-yl)methyl]amino}benzamidine acetate] | 5.1 nM
8 | COc1cc(C(Nc2ccc(C(=N)N)cc2)c2nn(-c3ccsc3C(=O)O)c(=O)[nH]2)cc(OCCO)c1OC (racemic) [Example 230, (R) and (S)-3-(3-{(4-Carbamimidoylphenylamino)-[3-(2-hydroxyethoxy)-4,5-dimethoxyphenyl]methyl}-5-oxo-4,5-dihydro-[1,2,4]triazol-1-yl)thiophene-2-carboxylic acid] | 4.9 nM
9 | COc1cc(C(Nc2ccc(C(=N)N)c(F)c2)c2nn(-c3ccsc3C(=O)O)c(=O)[nH]2)c(F)c2c1OCCO2 (racemic) [Example 231, 3-{3-[(4-Carbamimidoyl-3-fluorophenylamino)-(5-fluoro-8-methoxy-2,3-dihydrobenzo[1,4]dioxin-6-yl)methyl]-5-oxo-4,5-dihydro-[1,2,4]triazol-1-yl}thiophene-2-carboxylic acid] | 6.5 nM
10 | COc1cc(OC)cc(C(Nc2ccc(C(=N)N)cc2)c2nn(-c3ncsc3C(=O)O)c(=O)[nH]2)c1 (racemic) [Example 232, (R) and (S)-4-{3-[(4-Carbamimidoylphenylamino)-(3,5-dimethoxyphenyl)methyl]-5-oxo-4,5-dihydro-[1,2,4]triazol-1-yl}thiazole-5-carboxylic acid] | 23.7 nM
11 | COc1cc(C(Nc2ccc(C(=N)N)cc2)c2nn(-c3ncsc3C(=O)O)c(=O)[nH]2)cc(OCCO)c1OC (racemic) [Example 233, (R) and (S)-4-(3-{(4-Carbamimidoylphenylamino)-[3-(2-hydroxyethoxy)-4,5-dimethoxyphenyl]methyl}-5-oxo-4,5-dihydro-[1,2,4]triazol-1-yl)thiazole-5-carboxylic acid] | 23.8 nM
12 | COc1cc(C(Nc2ccc(C(=N)N)cc2)c2nn(-c3ncccn3)c(=O)[nH]2)cnc1OC (racemic) [Example 234, 4-{[(5,6-Dimethoxypyridin-3-yl)-(5-oxo-1-pyrimidin-2-yl-4,5-dihydro-1H-[1,2,4]triazol-3-yl)methyl]amino}benzamidine] | 11.1 nM
13 | CCOc1cc(C(Nc2ccc(C(=N)N)cc2)c2nn(-c3ccsc3C(=O)O)c(=O)[nH]2)cnc1OC (racemic) [Example 235, 3-{3-[(4-Carbamimidoylphenylamino)-(5-ethoxy-6-methoxypyridin-3-yl)methyl]-5-oxo-4,5-dihydro-[1,2,4]triazol-1-yl}thiophene-2-carboxylic acid] | 3.8 nM
14 | COc1cc(F)c(C(Nc2ccc(C(=N)N)cc2F)c2nn(-c3ncccn3)c(=O)[nH]2)cc1OC (racemic) [Example 236, 3-Fluoro-4-{[(R) and (S)-(2-fluoro-4,5-dimethoxyphenyl)-(5-oxo-1-pyrimidin-2-yl-4,5-dihydro-1H-[1,2,4]triazol-3-yl)methyl]amino}benzamidine acetate] | 11.8 nM
15 | COc1cc(C(Nc2ccc(C(=N)N)cc2)c2nn(-c3ccsc3C(=O)O)c(=O)[nH]2)c(F)cc1OCCO (racemic) [Example 237, 3-(3-{(4-Carbamimidoylphenylamino)-[2-fluoro-4-(2-hydroxyethoxy)-5-methoxyphenyl]methyl}-5-oxo-4,5-dihydro-[1,2,4]triazol-1-yl)thiophene-2-carboxylic acid] | 23.5 nM
16 | COc1cc(OC)c(F)c(C(Nc2ccc(C(=N)N)cc2)c2nn(-c3cccc[n+]3[O-])c(=O)[nH]2)c1 (single isomer, unassigned) [Example 2] | 9.4 nM
17 | COc1cc(C(Nc2ccc(C(=N)N)cc2)c2nn(-c3ncsc3C(=O)O)c(=O)[nH]2)cc2c1OCCCO2 (single isomer, unassigned) [Example 180, 4-{3-[(4-carbamimidoylphenylamino)-(9-methoxy-3,4-dihydro-2H-benzo[b][1,4]dioxepin-7-yl)methyl]-5-oxo-4,5-dihydro-[1,2,4]triazol-1-yl}thiazole-5-carboxylic acid] | 10.1 nM
18 | CCOc1cc(C(Nc2ccc(C(=N)N)cc2)c2nn(-c3ncsc3C(=O)O)c(=O)[nH]2)cnc1OC (single isomer, unassigned) [Example 185, 4-{3-[(4-Carbamimidoylphenylamino)-(5-ethoxy-6-methoxypyridin-3-yl)methyl]-5-oxo-4,5-dihydro-[1,2,4]triazol-1-yl}thiazole-5-carboxylic acid] | 11.6 nM
19 | COc1cc(F)c(C(Nc2ccc(C(=N)N)cc2)c2nn(-c3nc[nH]c3C(=O)O)c(=O)[nH]2)cc1OC (single isomer, unassigned) [Example 187, 5-{3-[(4-Carbamimidoylphenylamino)-(2-fluoro-4,5-dimethoxyphenyl)methyl]-5-oxo-4,5-dihydro-[1,2,4]triazol-1-yl}-3H-imidazole-4-carboxylic acid] | 9 nM
20 | COc1cc(C(Nc2ccc(C(=N)N)cc2)c2nn(-c3ncsc3C(=O)O)c(=O)[nH]2)c(F)c2c1OCCO2 (single isomer, unassigned) [Example 188, 4-{3-[(4-Carbamimidoylphenylamino)-(5-fluoro-8-methoxy-2,3-dihydro-benzo[1,4]dioxin-6-yl)-methyl]-5-oxo-4,5-dihydro-[1,2,4]triazol-1-yl}thiazole-5-carboxylic acid] | 22.4 nM
21 | COc1cc(C(Nc2ccc(C(=N)N)cc2)c2nn(-c3nc[nH]c3C(=O)O)c(=O)[nH]2)c(F)c2c1OCCO2 (single isomer, unassigned) [Example 191, 5-{3-[(R) or (S)-(4-Carbamimidoylphenylamino)-(5-fluoro-8-methoxy-2,3-dihydrobenzo[1,4]dioxin-6-yl)methyl]-5-oxo-4,5-dihydro-[1,2,4]triazol-1-yl}-3H-imidazole-4-carboxylic acid trifluoroacetate] | 9.3 nM
22 | COc1cc(OCCCO)c(F)c(C(Nc2ccc(C(=N)N)cc2)c2nn(-c3[nH]ncc3C(=O)O)c(=O)[nH]2)c1 (single isomer, unassigned) [Example 198, (R) or (S)-5-(3-{(4-Carbamimidoylphenylamino)-[2-fluoro-3-(3-hydroxypropoxy)-5-methoxyphenyl]methyl}-5-oxo-4,5-dihydro-[1,2,4]triazol-1-yl)-1H-pyrazole-4-carboxylic acid acetate] | 19.6 nM
23 | COc1cc(COCCO)c(F)c(C(Nc2ccc(C(=N)N)cc2)c2nn(-c3ncccn3)c(=O)[nH]2)c1 (single isomer, unassigned) [Example 216, 4-{[[2-Fluoro-3-(2-hydroxyethoxymethyl)-5-methoxyphenyl]-(5-oxo-1-pyrimidin-2-yl-4,5-dihydro-1H-[1,2,4]triazol-3-yl)methyl]amino}benzamidine] | 13.4 nM
24 | COc1cc(CF)cc(C(Nc2ccc(C(=N)N)cc2)c2nn(-c3ncccn3)c(=O)[nH]2)c1 (stereo not shown) [Example 11, 4-{[(3-fluoromethyl-5-methoxyphenyl)-(5-oxo-1-pyrimidin-2-yl-4,5-dihydro-1H-[1,2,4]triazol-3-yl)methyl]amino}benzamidine acetate] | 29.7 nM
25 | COc1ccccc1-n1nc(C(Nc2ccc(C(=N)N)cc2)c2cc(C)cc(OC)c2F)[nH]c1=O (stereo not shown) [Example 14, 4-({(2-fluoro-3-methoxy-5-methylphenyl)-[1-(2-methoxyphenyl)-5-oxo-4,5-dihydro-1H-[1,2,4]triazol-3-yl]methyl}amino)benzamidine trifluoroacetate] | 5.9 nM
